Reference: ChEMBL document CHEMBL4376822, “Hot-Spots of Mcl-1 Protein” (J Med Chem, 2020)

Assays:
[1] = biological target: T1, Apoptosis regulator Bcl-2 (Homo sapiens, UniProt P10415); assay: Inhibition of human BCl2 expressed in Escherichia coli BL21 (DE3) pLysS cells by surface plasmon resonance assay
[2] = Inhibition of human GST-tagged BCL-XL deltaC25 mutant using biotinylated BIM 26-mer peptide as substrate incubated for 30 mins by AlphaScreen assay
[3] = biological target: T2, Induced myeloid leukemia cell differentiation protein Mcl-1 (Homo sapiens, UniProt Q07820)
[4] = Inhibition of human GST-tagged BCL-XL deltaC24 mutant using BIMBH3 mutant peptide as substrate by SPR assay
[5] = biological target: T1, Apoptosis regulator Bcl-2; assay: Displacement of fluorescein labelled Puma-BH3 peptide from human BCl2 expressed in Escherichia coli BL21 (DE3) pLysS cells incubated for 2 hrs by fluorescence polarization assay
[6] = biological target: T2, Induced myeloid leukemia cell differentiation protein Mcl-1; assay: Inhibition of TAMRA-labeled BIM BH3 peptide binding to human Mcl1 (171 to 327 residues) incubated for 120 mins by fluorescence polarization
[7] = biological target: T2, Induced myeloid leukemia cell differentiation protein Mcl-1; assay: Displacement of fluorescein labelled Puma-BH3 peptide from His-tagged-TEV fused human Mcl-1 incubated for 2 hrs by fluorescence polarization assay
[8] = biological target: T1, Apoptosis regulator Bcl-2; assay: Inhibition of Bcl-2 (unknown origin) by fluorescence polarization assay
[9] = biological target: T1, Apoptosis regulator Bcl-2; assay: Inhibition of wild-type BCL-2 (unknown origin) expressed in Escherichia coli BL21 cells using biotinylated BIMBH3 or BAXBH3 peptide by surface plasmon resonance assay

T2 sequence (Q07820 whole entry): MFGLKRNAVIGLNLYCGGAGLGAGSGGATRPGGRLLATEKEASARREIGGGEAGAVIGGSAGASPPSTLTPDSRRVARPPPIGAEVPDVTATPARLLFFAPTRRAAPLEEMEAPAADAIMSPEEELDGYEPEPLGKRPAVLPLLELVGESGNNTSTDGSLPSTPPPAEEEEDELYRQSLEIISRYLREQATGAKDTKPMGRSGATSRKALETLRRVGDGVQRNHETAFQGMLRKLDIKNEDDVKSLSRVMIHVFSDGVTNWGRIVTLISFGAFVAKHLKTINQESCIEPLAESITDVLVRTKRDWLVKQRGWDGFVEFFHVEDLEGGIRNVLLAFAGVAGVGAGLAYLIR
T1 sequence (P10415 whole entry): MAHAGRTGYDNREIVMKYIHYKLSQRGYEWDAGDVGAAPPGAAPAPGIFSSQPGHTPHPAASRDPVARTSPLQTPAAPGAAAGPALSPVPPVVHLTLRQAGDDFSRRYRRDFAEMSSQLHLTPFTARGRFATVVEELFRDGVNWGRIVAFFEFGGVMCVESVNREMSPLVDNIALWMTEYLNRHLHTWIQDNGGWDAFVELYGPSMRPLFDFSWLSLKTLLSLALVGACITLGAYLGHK

Q: With `CC[C@H](C)[C@H](NC(=O)[C@H](CCC(=O)O)NC(=O)[C@H](CCCNC(=N)N)NC(=O)[C@H](C)NC(=O)[C@H](Cc1c[nH]c2ccccc12)NC(=O)[C@H](CCC(N)=O)NC(=O)[C@H](CCC(=O)O)NC(=O)[C@@H](N)CCC(=O)O)C(=O)NCC(=O)N[C@@H](C)C(=O)N[C@@H](CCC(N)=O)C(=O)N[C@@H](CC(C)C)C(=O)N[C@@H](CCCNC(=N)N)C(=O)N[C@@H](CCCNC(=N)N)C(=O)N[C@@H](CCSC)C(=O)N[C@@H](C)C(=O)N[C@@H](CC(=O)O)C(=O)N[C@@H](CC(=O)O)C(=O)N[C@@H](CC(C)C)C(=O)N[C@@H](CC(N)=O)C(=O)N[C@@H](C)C(=O)N[C@@H](CCC(N)=O)C(=O)N[C@@H](Cc1ccc(O)cc1)C(=O)N[C@@H](CCC(=O)O)C(=O)N[C@@H](CCCNC(=N)N)C(=O)O` as the molecule, how does the IC50 [1] read?
A: 3.3 nM

Q: With `O=C(O)c1nc(-c2ccc3c(c2)/C(=N/Nc2nc4ccccc4s2)CCC3)sc1CCCCc1ccccc1` as the molecule, how does the IC50 [2] read?
A: 24 nM

Q: Which IC50 [3] does the source give for `Cc1ccccc1-c1cccc2c(CCCOc3cccc4ccccc34)c(C(=O)O)[nH]c12` here?
A: 1100 nM

Q: With `CN(C)CC[C@H](CSc1ccccc1)Nc1ccc(S(=O)(=O)NC(=O)c2ccc(N3CCN(Cc4ccccc4-c4ccccc4)CC3)cc2)cc1[N+](=O)[O-]` as the molecule, how does the IC50 [4] read?
A: 11 nM

Q: For `CCCCN(CCCC)C(=O)c1cc(C)n(-c2ccccc2C(=O)N2Cc3ccccc3C[C@H]2CN)n1`, which IC50 [5] is on record?
A: 1300 nM

Q: For `O=C1NS(=O)(=O)CCOCCCCCCN2C[C@@]3(CCCc4cc(Cl)ccc43)COc3ccc1cc32`, which IC50 [6] is on record?
A: 10 nM

Q: Which IC50 [5] does the source give for `C[N+](C)(CC[C@H](CSc1ccccc1)Nc1ccc(S(=O)(=O)NC(=O)c2ccc(N3CCN(Cc4ccccc4-c4ccc(Cl)cc4)CC3)cc2)cc1[N+](=O)[O-])CC(=O)O` here?
A: 500 nM

Q: With `COc1cc2c(cc1C(CN1CCCC1)c1ccc(-c3ccc(C(=O)NS(=O)(=O)c4ccc(C[C@H](CCN5CCOCC5)CSc5ccccc5)c(S(=O)(=O)C(F)(F)F)c4)cc3)cc1)OCO2` (some centres undefined) as the molecule, how does the IC50 [5] read?
A: 20 nM

Q: Which IC50 [7] does the source give for `Cc1n[nH]c(C)c1-c1cccc2c(CCCOc3cccc4ccccc34)c(C(=O)O)[nH]c12` here?
A: 0.1 µM

Q: With `CCc1sc2ncnc(N[C@@H](CO)C(=O)O)c2c1-c1ccccc1` as the molecule, how does the IC50 [7] read?
A: 520 µM

Q: With `O=C(NS(=O)(=O)c1ccc(NC2CCOCC2)c([N+](=O)[O-])c1)c1ccc(N2CCN(CC3=C(c4ccc(Cl)cc4)COCC3)CC2)cc1` as the molecule, how does the Ki [8] read?
A: 59 nM

Q: Which IC50 [2] does the source give for `C/C(=N\Nc1nc2ccccc2s1)c1ccc(-c2ccc(S(=O)(=O)NC(=O)CCCCCc3ccccc3)cc2)o1` here?
A: 770 nM

Q: For `NC[C@@H]1Cc2ccccc2CN1C(=O)c1cc2c(cc1-c1cc(C(=O)N(c3ccccc3)c3ccc(O)cc3)c3n1CCCC3)OCO2`, which Ki [9] is on record?
A: 0.36 nM
